Molecular target: T1, human mPGES-1 (Homo sapiens, UniProt O14684)
T1 construct: made in house; host or cells: COS-1 cells (transient transfection; microsomal fraction used as enzyme)
T1 sequence (O14684 1-152): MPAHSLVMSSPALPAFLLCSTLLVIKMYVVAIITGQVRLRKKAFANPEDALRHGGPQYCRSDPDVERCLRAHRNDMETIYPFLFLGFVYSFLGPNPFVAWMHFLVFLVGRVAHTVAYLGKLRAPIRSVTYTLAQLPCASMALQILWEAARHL
Test: Test for mPGES-1 inhibitory activity (microsomal enzyme, PGE2 EIA)
Assay type: biochemical
Conditions: microsomes from COS-1 cells transfected with human mPGES-1 cDNA; substrate PGH2 1 μM; 4° C., 4 minutes; PGE2 measured by EIA; read-out: h mPGES1 IC50
How it was run: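 IC50 values were derived from EIA-quantified PGE2 after a 4 min, 4 °C reaction with PGH2 at 1 μM final, stopped with ferric chloride/citric acid. Beforehand, compound (2% DMSO final) sat 15 min at 4 °C with human mPGES-1 microsomes from transiently transfected COS-1 cells. Buffer was sodium phosphate pH 7.2 containing 2.5 mM reduced glutathione and 1 mM EDTA.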

IC50 | Compound
21 nM | O=c1cc(C(F)(F)F)nc(-c2c(C(F)(F)F)ccc(CNC(=O)[C@H]3CC[C@H](OCc4ccc(F)c(F)c4)CC3)c2F)[nH]1 [Example 115, trans-4-[(3,4-difluorobenzyl)oxy]-N-{2-fluoro-3-[6-oxo-4-(trifluoromethyl)-1,6-dihydropyrimidin-2-yl]-4-(trifluoromethyl)benzyl}cyclohexane-1-carboxamide]
10 nM | O=c1cc(C(F)F)nc(-c2c(C(F)(F)F)ccc(CNC(=O)[C@H]3CC[C@H](OCc4ccc(Cl)cc4)CC3)c2F)[nH]1 [Example 116, trans-4-[(4-chlorobenzyl)oxy]-N-{3-[4-(difluoromethyl)-6-oxo-1,6-dihydropyrimidin-2-yl]-2-fluoro-4-(trifluoromethyl)benzyl}cyclohexane-1-carboxamide]
< 1 nM | O=c1cc(C(F)(F)F)nc(-c2c(C(F)(F)F)ccc(CNC(=O)[C@H]3CC[C@H](OCc4cc(F)cc(F)c4)CC3)c2F)[nH]1 [Example 117, trans-4-[(3,5-difluorobenzyl)oxy]-N-{2-fluoro-3-[6-oxo-4-(trifluoromethyl)-1,6-dihydropyrimidin-2-yl]-4-(trifluoromethyl)benzyl}cyclohexane-1-carboxamide]
< 1 nM | O=c1cc(C(F)(F)F)nc(-c2c(C(F)(F)F)ccc(CNC(=O)[C@H]3CC[C@H](OCc4ccc(Cl)cc4F)CC3)c2F)[nH]1 [Example 118, trans-4-[(4-chloro-2-fluorobenzyl)oxy]-N-{2-fluoro-3-[6-oxo-4-(trifluoromethyl)-1,6-dihydropyrimidin-2-yl]-4-(trifluoromethyl)benzyl}cyclohexane-1-carboxamide]
< 1 nM | O=c1cc(C(F)(F)F)nc(-c2c(C(F)(F)F)ccc(CNC(=O)[C@H]3CC[C@H](OCc4cc(F)cc(Cl)c4)CC3)c2F)[nH]1 [Example 119, trans-4-[(3-chloro-5-fluorobenzyl)oxy]-N-{2-fluoro-3-[6-oxo-4-(trifluoromethyl)-1,6-dihydropyrimidin-2-yl]-4-(trifluoromethyl)benzyl}cyclohexane-1-carboxamide]
11 nM | Cc1cc(=O)[nH]c(-c2c(C(F)(F)F)ccc(CNC(=O)[C@H]3CC[C@H](OCc4cc(F)cc(F)c4)CC3)c2F)n1 [Example 120, trans-4-[(3,5-difluorobenzyl)oxy]-N-[2-fluoro-3-(4-methyl-6-oxo-1,6-dihydropyrimidin-2-yl)-4-(trifluoromethyl)benzyl]cyclohexane-1-carboxamide]
< 1 nM | Cc1cc(=O)[nH]c(-c2c(C(F)(F)F)ccc(CNC(=O)[C@H]3CC[C@H](OCc4ccc(Cl)cc4F)CC3)c2F)n1 [Example 121, trans-4-[(4-chloro-2-fluorobenzyl)oxy]-N-[2-fluoro-3-(4-methyl-6-oxo-1,6-dihydropyrimidin-2-yl)-4-(trifluoromethyl)benzyl]cyclohexane-1-carboxamide]
< 1 nM | Cc1cc(=O)[nH]c(-c2c(C(F)(F)F)ccc(CNC(=O)[C@H]3CC[C@H](OCc4cc(F)cc(Cl)c4)CC3)c2F)n1 [Example 122, trans-4-[(3-chloro-5-fluorobenzyl)oxy]-N-[2-fluoro-3-(4-methyl-6-oxo-1,6-dihydropyrimidin-2-yl)-4-(trifluoromethyl)benzyl]cyclohexane-1-carboxamide]
< 1 nM | Cc1nc(-c2c(C(F)(F)F)ccc(CNC(=O)[C@H]3CC[C@H](OCc4cccc(Cl)c4)CC3)c2F)[nH]c(=O)c1F [Example 123, trans-4-[(3-chlorobenzyl)oxy]-N-[2-fluoro-3-(5-fluoro-4-methyl-6-oxo-1,6-dihydropyrimidin-2-yl)-4-(trifluoromethyl)benzyl]cyclohexane-1-carboxamide]
< 1 nM | CCc1nc(-c2c(C(F)(F)F)ccc(CNC(=O)[C@H]3CC[C@H](OCc4ccccc4Cl)CC3)c2F)[nH]c(=O)c1F [Example 124, trans-4-[(2-chlorobenzyl)oxy]-N-[3-(4-ethyl-5-fluoro-6-oxo-1,6-dihydropyrimidin-2-yl)-2-fluoro-4-(trifluoromethyl)benzyl]cyclohexane-1-carboxamide]
